Laboratory results from patent publication US20120004281A1, “RNA Interference Mediated Inhibition of the Nerve Growth Factor Beta Chain (NGFB) Gene Expression Using Short Interfering Nucleic Acid (siNA)” (Merck Sharp & Dohme Corp, priority 2009, published 2012).
[invAb] = inverted abasic unit; m = 2'-O-methyl; r = 2'-OH (RNA); f = 2'-fluoro

What was measured:
NGFβ mRNA = NGFβ mRNA knock-down in Calu-1 cells (RNAiMax transfection, Taqman RT-PCR); type: cell-based, human; details: for Primary Screen % KD (10 nM) / IC50 / Maximum % KD in DRC: human CaLu-1 cells; for Primary Screen % KD (10 nM): mean ± S.D. of four experiments; for IC50 / Maximum % KD in DRC: dose response 0.083fM to 30 nM, mean ± S.D.; for % KD in CaLu-1 Cells: human Calu-1 cells, 10 nM siNA, 24 hrs post-transfection, relative to non-targeting control, normalized to GAPDH
Protocol: Calu-1 (human; ATCC cat# HTB-54): Cells were cultured at 37° C. in the presence of 5% CO2 and grown in McCoy's 5a medium supplemented with fetal bovine serum at a final concentration of 10% and 100 μg/mL of streptomycin and 100 U/mL penicillin.
All transfections were performed using RNAiMax (Invitrogen Cat# 13778-150) as per the manufacturer's instructions.
Cells were plated in all wells of a tissue-culture treated, 96-well plate at a final count of 5,000 cells/well in […], of appropriate culture media. Cells were cultured for 24 hours after plating at 37° C. in the presence of 5% CO2.
After 24 hours, complexes containing siNA and RNAiMax were created as follows: A solution of RNAiMax diluted 33-fold in OPTI-MEM was prepared. In parallel, solutions of the siNAs for testing were prepared to a final concentration of 120 nM in OPTI-MEM. After incubation of RNAiMax/OPTI-MEM solution at room temperature for 5 min, an equal volume of the siRNA solution and the RNAiMax solution were added together for each of the siNAs.
This solution was incubated at room temperature for 20 minutes. After incubation, 20 uL of the solution was added to each of the relevant wells.
The final concentration of siNA in each well was 10 nM and the final volume of RNAiMax in each well was 0.3u1.
The time of incubation with the RNAiMax-siNA complexes was 24 hours, unless otherwise indicated. There was no change in media between the transfection and harvesting of the cells unless otherwise indicated.
Dose response curves were carried out in a similar fashion in 96-well plates, while maintaining a constant amount of RNAiMax in each transfection.
RNA was extracted from a 96-well plate using the TaqMan® Gene Expression Cells-to-CT™ Kit (Cat# 4399002) with a modified protocol. Briefly, a 60 uL (1 plate) or 110 uL (2 plates) of the Lysis Solution with DNase I was dispensed into each well of the Lysis Buffer Plate (twin.tec full skirt plate). The lysis buffer and stop plates were stored at 4° C. until the cells were washed.
The plate was spun at 1100 rpm for 5 minutes. The culture medium was aspirated and discarded from the wells of the culture plate. The lysis was performed automatically using a BioMek FX instrument and method. After the Biomek method was completed, the lysis plate was incubated for 2 min. at room temperature. The lysis plate can be stored for 2 hours at 4° C., or at −20° C. or −80° C. for two months.
Each well of the reverse transcription plate required 10 uL of 2× reverse transcriptase Buffer, luL of 20× reverse transcription enzyme and 2 uL of nuclease-free water. The reverse transcription master mix was prepared by mixing 2× reverse transcription buffer, 20× reverse transcription enzyme mix, and nuclease-free water. 13 uL of the reverse transcription master mix was dispensed into each well of the reverse transcription plate (semi-skirted). A separate reverse transcription plate was prepared for each cell plate. The plate was loaded onto a Biomek NX or Biomek FX Dual-96 and the Biomek method was run. The program is programmed to automatically added 7 uL of lysate from the cell lysis procedure described above into each well of the reverse transcription plate. The plate is sealed and spun on a centrifuge (1000 rpm for 30 seconds) to settle the contents to the bottom of the reverse transcription plate. The plate is placed in a thermocycler at 37° C. for 60 min, 95° C. for 5 min, and 4° C. until the plate is removed from the thermocycler. Upon removal, if not used immediately, the plate was frozen at −20° C.
A series of probes and primers were used to detect the various mRNA transcripts of the genes of NGFβ, BDNF and GAPDH in human cell lines. All the Taqman probes and primers for the experiments here-in described were supplied as pre-validated sets by Applied Biosystems, Inc. (see Table 3). The assays were performed on an ABI 7900 instrument, according to the manufacturer's instructions. […]

NGFβ protein = assay: NGFβ ELISA (protein knock-down in Calu-1 cells); type: cell-based, human; details: for Max % Protein Reduction at 3 nM: 3 nM siNA, relative to negative universal control siNA (UC3); for IC50: 200 fM to 3 nM siNA, ELISA
Protocol: In a 96-well plate, 5,000 Calu-1cells/well were seeded in 100 uL of complete growth media and incubated overnight at 37° C. with 5% CO2. The cells were transfected with siNAs using RNAiMax (Invitrogen, Cat# 13778-150); final concentration of siNAs is 3e-09, le-09, 3e-10, le-10, 4e-11, le-11, 4e-12, le-12, 5e-13, and 2e-13 M. The amount of RNAiMax in each well is 0.3 uL. The siNAs were incubated for 24 hours. The medium was replaced with 100 uL of fresh complete growth medium. The cells were incubated for 48 hours. 80 uL of the medium from each well was collected into a separate 96-well plate. The samples were frozen immediately at −80° C. until ready the assay was ready to be performed.
ELISA was performed using NGF Emax® ImmunoAssay System (Promega, Cat # G7630) according to the manufaturer's instructions. The samples were diluted 1:2 with the blocking buffer provided in the kit. The samples absorbance was recorded at 450 nm on a SpectraMax plate reader (Molecular Devices) within 30 minutes of stopping the reaction.
Sigmaplot was used to determine IC50 values for each of the tested siRNAs using a sigmoidal dose response calculation. The maximum percentage of protein knock-down was determined by dividing the pg/mL at each treated siNA concentration by the pg/mL of the control treated cells at the same concentration of siNA. This number was then converted to a percentage to give the percent of protein remaining.
Various siNAs were also evaluated for their potential to knock-down NGFβ protein using an ELISA assay. Six siNAs were tested in an NGFβ ELISA assay across a range of concentrations of siNAs (200 fM to 3 nM) and the level of reduction of protein was determined relative to treatment of the cells with identical concentrations of the negative universal control siNA (UC3) (see Table 6).

| Substance | Primary Screen % KD (10 nM) (NGFβ mRNA) [%] | IC50 (NGFβ mRNA) [pM] | Maximum % KD in DRC (NGFβ mRNA) [%] | % KD in CaLu-1 Cells (NGFβ mRNA) [%] | Max % Protein Reduction at 3 nM (NGFβ protein) [%] | IC50 (NGFβ protein) [nM] |
| --- | --- | --- | --- | --- | --- | --- |
| 25413-DC: siNA duplex, NGFβ target site 153; sense B cuGAGGuGcAuAGcGuAAu TTB (SEQ ID NO: 51), antisense AUUAcGcuAuGcAccucAGUU (SEQ ID NO: 52) (sense CUGAGGUGCAUAGCGUAAUTT; antisense AUUACGCUAUGCACCUCAGUU; sense: DNA at AGT, 2'-fluoro at CU, [invAb] at 5' end, 3' end, backbone not given here; antisense: sugars from the 5' end rrrmfmffmfmfmffffmmmm, backbone not given here) | 76 ± 6 | 38 ± 35 | 69 ± 8 | 68 | 77 | 0.253 |
| 25416-DC: siNA duplex, NGFβ target site 771; sense B GuAccAcGAcucAcAccuu TTB (SEQ ID NO: 57), antisense AAGGuGuGAGucGuGGuAcUU (SEQ ID NO: 58) (sense GUACCACGACUCACACCUUTT; antisense AAGGUGUGAGUCGUGGUACUU; sense: DNA at AGT, 2'-fluoro at CU, [invAb] at 5' end, 3' end, backbone not given here; antisense: sugars from the 5' end rrrmfmfmmmffmfmmfmfmm, backbone not given here) | 80 ± 3 | 35 ± 33 | 61 ± 7 | 69 | 89 | 0.096 |
| 25417-DC: siNA duplex, NGFβ target site 655; sense B GGuGAAcAuuAAcAAcAGu TTB (SEQ ID NO: 59), antisense ACUGuuGuuAAuGuucAccUU (SEQ ID NO: 60) (sense GGUGAACAUUAACAACAGUTT; antisense ACUGUUGUUAAUGUUCACCUU; sense: DNA at AGT, 2'-fluoro at CU, [invAb] at 5' end, 3' end, backbone not given here; antisense: sugars from the 5' end rrrmffmffmmfmfffmffmm, backbone not given here) | 71 ± 2 | 71 ± 46 | 61 ± 2 | 68 | 77 | 0.303 |
| 25422-DC: siNA duplex, NGFβ target site 171; sense B uGuccAuGuuGuucuAcAc TTB (SEQ ID NO: 69), antisense GUGuAGAAcAAcAuGGAcAUU (SEQ ID NO: 70) (sense UGUCCAUGUUGUUCUACACTT; antisense GUGUAGAACAACAUGGACAUU; sense: DNA at AGT, 2'-fluoro at CU, [invAb] at 5' end, 3' end, backbone not given here; antisense: sugars from the 5' end rrrfmmmmfmmfmfmmmfmmm, backbone not given here) | 72 ± 11 | 60 ± 45 | 61 ± 9 | 72 | 77 | 0.395 |
| 25426-DC: siNA duplex, NGFβ target site 676; sense B AuucAAAcAGuAcuuuuuu TTB (SEQ ID NO: 77), antisense AAAAAAGuAcuGuuuGAAuUU (SEQ ID NO: 78) (sense AUUCAAACAGUACUUUUUUTT; antisense AAAAAAGUACUGUUUGAAUUU; sense: DNA at AGT, 2'-fluoro at CU, [invAb] at 5' end, 3' end, backbone not given here; antisense: sugars from the 5' end rrrmmmmfmffmfffmmmfmm, backbone not given here) | – | – | – | 38 | – | – |
| 25427-DC: siNA duplex, NGFβ target site 516; sense B cucAcAGGAGcAAGcGGuc TTB (SEQ ID NO: 79), antisense GACcGcuuGcuccuGuGAGUU (SEQ ID NO: 80) (sense CUCACAGGAGCAAGCGGUCTT; antisense GACCGCUUGCUCCUGUGAGUU; sense: DNA at AGT, 2'-fluoro at CU, [invAb] at 5' end, 3' end, backbone not given here; antisense: sugars from the 5' end rrrfmfffmfffffmfmmmmm, backbone not given here) | – | – | – | 6 | – | – |
| 25428-DC: siNA duplex, NGFβ target site 677; sense B uucAAAcAGuAcuuuuuuG TTB (SEQ ID NO: 81), antisense CAAAAAAGuAcuGuuuGAAUU (SEQ ID NO: 82) (sense UUCAAACAGUACUUUUUUGTT; antisense CAAAAAAGUACUGUUUGAAUU; sense: DNA at AGT, 2'-fluoro at CU, [invAb] at 5' end, 3' end, backbone not given here; antisense: sugars from the 5' end rrrmmmmmfmffmfffmmmmm, backbone not given here) | – | – | – | 57 | – | – |
| 25429-DC: siNA duplex, NGFβ target site 469; sense B ucAGGAucuGGAcuucGAG TTB (SEQ ID NO: 83), antisense CUCGAAGuccAGAuccuGAUU (SEQ ID NO: 84) (sense UCAGGAUCUGGACUUCGAGTT; antisense CUCGAAGUCCAGAUCCUGAUU; sense: DNA at AGT, 2'-fluoro at CU, [invAb] at 5' end, 3' end, backbone not given here; antisense: sugars from the 5' end rrrmmmmfffmmmffffmmmm, backbone not given here) | – | – | – | 1 | – | – |
